Where two headings read alike, the source gives them in different places.
Assays:
Assay in all cases: Test B pre-/postemergence plant response
Type in all cases: in vivo
[1] = test system: Surinam grass (Brachiaria decumbens); conditions: for pest or weed control at 31 g/ha: 31 g ai/ha; for pest or weed control at 62 g/ha: 62 g ai/ha
From the text: (§1) Seeds of plant species selected from blackgrass (Alopecurus myosuroides), downy bromegrass (Bromus tectorum), green foxtail (Setaria viridis), Italian ryegrass (Lolium multiflorum), wheat (Triticum aestivum), wild oat (Avena fatua), deadnettle (henbit deadnettle, Lamium amplexicaule), galium (catchweed bedstraw, Galium aparine), bermudagrass (Cynodon dactylon), Surinam grass (Brachiaria decumbens), cocklebur (Xanthium strumarium), corn (Zea mays), large crabgrass (Digitaria sanguinalis), woolly cupgrass (Eriochloa villosa), giant foxtail (Setaria faberii), goosegrass (Eleusine indica), johnsongrass (Sorghum halepense), kochia (Kochia scoparia), lambsquarters (Chenopodium album), morningglory (Ipomoea coccinea), nightshade (eastern black nightshade, Solanum ptycanthum), yellow nutsedge (Cyperus esculentus), pigweed (Amaranthus retroflexus), ragweed (common ragweed, Ambrosia elatior), Russian thistle (Salsola kali), soybean (Glycine max), sunflower (common oilseed sunflower, Helianthus annuus) and velvetleaf (Abutilon theophrasti) were planted into a blend of loam soil and sand and treated preemergence with test compounds formulated in a non-phytotoxic solvent mixture which included a surfactant.
(§2) At the same time, plants selected from these crop and weed species and also winter barley (Hordeum vulgare), canarygrass (Phalaris minor), chickweed (Stellaria media) and windgrass (Apera spica-venti) were planted in pots containing Redi-Earth® planting medium (Scotts Company, 14111 Scottslawn Road, Marysville, Ohio 43041) comprising spaghnum peat moss, vermiculite, wetting agent and starter nutrients and treated with postemergence applications of some of the test chemicals formulated in the same manner. Plants ranged in height from 2 to 18 cm (1- to 4-leaf stage) for postemergence treatments.
(§3) Treated plants and controls were maintained in a greenhouse for 13 to 15 days, after which time all treated plants were visually evaluated and compared to controls. Plant response ratings, summarized in Table B, are based on a scale of 0 to 100 where 0 is no effect and 100 is complete control. A dash (-) response means no test result.

[2] = test system: blackgrass (Alopecurus myosuroides); conditions: for pest or weed control at 16 g/ha: 16 g ai/ha; for pest or weed control at 16 g/ha / pest or weed control at 31 g/ha / pest or weed control at 62 g/ha: read-out: Plant response rating, Blackgrass; for pest or weed control at 31 g/ha: 31 g ai/ha; for pest or weed control at 62 g/ha: 62 g ai/ha
From the text: as §1, §2, §3

[3] = test system: cocklebur (Xanthium strumarium); conditions: for pest or weed control at 16 g/ha: 16 g ai/ha; for pest or weed control at 16 g/ha / pest or weed control at 31 g/ha / pest or weed control at 62 g/ha: read-out: Plant response rating, Cocklebur; for pest or weed control at 31 g/ha: 31 g ai/ha; for pest or weed control at 62 g/ha: 62 g ai/ha
From the text: as §1, §2, §3

corn (Zea mays) = conditions: for Corn plant response rating (crop injury, 0 = no effect, 100 = complete kill) at 16 g/ha: 16 g ai/ha; for Corn plant response rating (crop injury, 0 = no effect, 100 = complete kill) at 31 g/ha: 31 g ai/ha; for Corn plant response rating (crop injury, 0 = no effect, 100 = complete kill) at 62 g/ha: 62 g ai/ha
From the text: as §1, §2, §3

[4] = test system: downy bromegrass (Bromus tectorum); conditions: Bromus tectorum, post-emergence; 16 g ai/ha, Postemergence, 0 to 100 scale; read-out: Plant response rating, Bromegrass, Downy
From the text: as §1, §2, §3

[5] = Preemergence, 125 g ai/ha, 0 to 100 scale
[6] = Urochloa decumbens, pre-emergence, Preemergence, scale 0 to 100 (0 no effect, 100 complete control), read-out: Plant response rating, Surinam Grass
[7] = Alopecurus myosuroides, pre-emergence, 360 h, Preemergence, scale 0 to 100 (0 no effect, 100 complete control)
[8] = Xanthium strumarium, pre-emergence, Preemergence, scale 0 to 100 (0 no effect, 100 complete control)
[9] = Zea mays, pre-emergence, Preemergence, scale 0 to 100 (0 no effect, 100 complete control)

O=C1CCCC(O)=C1C(=O)c1cnc(-c2ccccc2)n(-c2ccccc2)c1=O [Compound 2, 5-[(2-hydroxy-6-oxo-1-cyclohexen-1-yl)carbonyl]-2,3-diphenyl-4(3H)-pyrimidinone]
Surinam Grass plant response rating [1, 5]: 60 | pest or weed control at 16 g/ha ([1]; Urochloa decumbens, post-emergence, 16 g ai/ha, Postemergence, 0 to 100 scale, read-out: Plant response rating, Surinam Grass): 70% | pest or weed control at 31 g/ha ([1]; Urochloa decumbens, post-emergence, Postemergence, scale 0 to 100 (0 no effect, 100 complete control), read-out: Plant response rating, Surinam Grass): 70% | pest or weed control at 62 g/ha ([1]; Urochloa decumbens, post-emergence, Postemergence, scale 0 (no effect) to 100 (complete control), 13 to 15 days, read-out: Plant response rating, Surinam Grass): 75% | pest or weed control at 125 g/ha ([1]; Urochloa decumbens, post-emergence, Postemergence, 125 g ai/ha, visual rating after 13 to 15 days, scale 0 (no effect) to 100 (complete control)): 85% | pest or weed control at 31 g/ha [1, 6]: 15% | pest or weed control at 62 g/ha [1, 6]: 20% | pest or weed control at 16 g/ha ([2]; Alopecurus myosuroides, post-emergence, 360 h, Postemergence, 0 to 100 scale): 0% | pest or weed control at 31 g/ha ([2]; Alopecurus myosuroides, post-emergence, 360 h, Postemergence, scale 0 to 100 (0 no effect, 100 complete control)): 10% | pest or weed control at 62 g/ha ([2]; Alopecurus myosuroides, post-emergence, 360 h, Postemergence, scale 0 (no effect) to 100 (complete control), 13 to 15 days): 30% | pest or weed control at 125 g/ha ([2]; Alopecurus myosuroides, post-emergence, 360 h, Postemergence, 125 g ai/ha, visual rating after 13 to 15 days, scale 0 (no effect) to 100 (complete control)): 45% | pest or weed control at 16 g/ha [2, 7]: 0% | pest or weed control at 31 g/ha [2, 7]: 0% | pest or weed control at 62 g/ha ([2]; Alopecurus myosuroides, pre-emergence, 360 h, Preemergence, scale 0 to 100, 0 no effect, 100 complete control): 0% | Blackgrass plant response rating [2, 5]: 50 | Cocklebur plant response rating [3, 5]: 80 | pest or weed control at 16 g/ha ([3]; Xanthium strumarium, post-emergence, Postemergence, 0 to 100 scale): 75% | pest or weed control at 31 g/ha ([3]; Xanthium strumarium, post-emergence, Postemergence, scale 0 to 100 (0 no effect, 100 complete control)): 80% | pest or weed control at 62 g/ha ([3]; Xanthium strumarium, post-emergence, Postemergence, scale 0 (no effect) to 100 (complete control), 13 to 15 days): 90% | pest or weed control at 125 g/ha ([3]; Xanthium strumarium, post-emergence, Postemergence, 125 g ai/ha, visual rating after 13 to 15 days, scale 0 (no effect) to 100 (complete control)): 95% | pest or weed control at 16 g/ha [3, 8]: 0% | pest or weed control at 31 g/ha [3, 8]: 0% | pest or weed control at 62 g/ha ([3]; Xanthium strumarium, pre-emergence, Preemergence, scale 0 to 100, 0 no effect, 100 complete control): 65% | Corn plant response rating (corn (Zea mays); [5]): 0 | Corn plant response rating (crop injury, 0 = no effect, 100 = complete kill) at 16 g/ha (corn (Zea mays); Zea mays, post-emergence, Postemergence, 0 to 100 scale): 15% | Corn plant response rating (crop injury, 0 = no effect, 100 = complete kill) at 31 g/ha (corn (Zea mays); Zea mays, post-emergence, Postemergence, scale 0 to 100 (0 no effect, 100 complete control)): 15% | Corn plant response rating (crop injury, 0 = no effect, 100 = complete kill) at 62 g/ha (corn (Zea mays); Zea mays, post-emergence, Postemergence, scale 0 (no effect) to 100 (complete control), 13 to 15 days): 25% | Corn plant response rating (crop injury, 0 = no effect, 100 = complete kill) at 125 g/ha (corn (Zea mays); Zea mays, post-emergence, Postemergence, 125 g ai/ha, visual rating after 13 to 15 days, scale 0 (no effect) to 100 (complete control)): 35% | Corn plant response rating (crop injury, 0 = no effect, 100 = complete kill) at 16 g/ha (corn (Zea mays); [9]): 0% | Corn plant response rating (crop injury, 0 = no effect, 100 = complete kill) at 31 g/ha (corn (Zea mays); [9]): 0% | Corn plant response rating (crop injury, 0 = no effect, 100 = complete kill) at 62 g/ha (corn (Zea mays); Zea mays, pre-emergence, Preemergence, scale 0 to 100, 0 no effect, 100 complete control): 0% | pest or weed control at 16 g/ha [4]: 20%
